#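 GI50 = concentration required for 50% inhibition of growth. Definition used: TGI = concentration required for complete inhibition of growth.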
# Legend:
# Test in all cases: NCI tumour cell line growth inhibition, 384-well format
# RXF 393 renal = system: RXF 393 renal
# HL-60(TB) leukemia = system: HL-60(TB) leukemia
# K-562 leukemia = system: K-562 leukemia
# SF-268 CNS = system: SF-268 CNS
# OVCAR-8 ovarian = system: OVCAR-8 ovarian
# MOLT-4 leukemia = system: MOLT-4 leukemia
# HOP-62 NSCLC = system: HOP-62 NSCLC
# EKVX NSCLC = system: EKVX NSCLC
# A549 NSCLC = system: A549 NSCLC
# SN12C renal = system: SN12C renal
# KM12 colon = system: KM12 colon
# NCI-H226 lung = system: NCI-H226 lung
# MDA-MB-231 breast = system: MDA-MB-231 breast
# NCI-H522 lung = system: NCI-H522 lung
# MCF7 breast = system: MCF7 breast
# CAKI-1 renal = system: CAKI-1 renal
# NCI-H23 lung = system: NCI-H23 lung
# HCC-2998 colon = system: HCC-2998 colon
# A498 renal = system: A498 renal
# HT29 colon = system: HT29 colon
# SK-OV-3 ovarian = system: SK-OV-3 ovarian
# HOP-92 NSCLC = system: HOP-92 NSCLC
# SR leukemia = system: SR leukemia
# ACHN renal = system: ACHN renal
# 786-0 renal = system: 786-0 renal
# OVCAR-4 ovarian = system: OVCAR-4 ovarian
# IGROV1 ovarian = system: IGROV1 ovarian
# U251 glioblastoma = system: U251 glioblastoma
# HCT-116 colon = system: HCT-116 colon
# SW-620 colon = system: SW-620 colon
# MDA-MB-468 breast = system: MDA-MB-468 breast
# NCI-H460 NSCLC = system: NCI-H460 NSCLC
# T-47D breast = system: T-47D breast
# DU-145 prostate = system: DU-145 prostate
# SK-MEL-28 melanoma = system: SK-MEL-28 melanoma
# MDA-MB-435 melanoma = system: MDA-MB-435 melanoma
# RPMI-8226 leukemia = system: RPMI-8226 leukemia
# COLO 205 colon = system: COLO 205 colon
# OVCAR-5 ovarian = system: OVCAR-5 ovarian
# SNB-75 CNS = system: SNB-75 CNS
# HCT-15 colon = system: HCT-15 colon
# HS 578T breast = system: HS 578T breast
# UO-31 renal = system: UO-31 renal
# MALME-3M melanoma = system: MALME-3M melanoma
# SK-MEL-2 melanoma = system: SK-MEL-2 melanoma
# CCRF-CEM leukemia = system: CCRF-CEM leukemia
# PC-3 prostate = system: PC-3 prostate
smiles,measurement,setting,value
NC(=O)c1nc(-c2c(F)cccc2Cl)oc1Nc1ccc(C(=O)N2CCOCC2)cc1,GI50,RXF 393 renal,1.1 µM
same,TGI,RXF 393 renal,3.3 µM
same,GI50,HL-60(TB) leukemia,0.36 µM
same,TGI,HL-60(TB) leukemia,1.09 µM
same,GI50,K-562 leukemia,1.62 µM
same,TGI,K-562 leukemia,15 µM
same,GI50,SF-268 CNS,2.45 µM
same,TGI,SF-268 CNS,11.2 µM
same,GI50,OVCAR-8 ovarian,4.51 µM
same,TGI,OVCAR-8 ovarian,18.7 µM
same,GI50,MOLT-4 leukemia,0.182 µM
same,TGI,MOLT-4 leukemia,0.436 µM
same,GI50,HOP-62 NSCLC,2.41 µM
same,TGI,HOP-62 NSCLC,19.6 µM
same,GI50,EKVX NSCLC,1.96 µM
same,TGI,EKVX NSCLC,7.57 µM
same,GI50,A549 NSCLC,0.686 µM
same,TGI,A549 NSCLC,5.44 µM
same,GI50,SN12C renal,1.64 µM
same,TGI,SN12C renal,13.6 µM
same,GI50,KM12 colon,0.17 µM
same,TGI,KM12 colon,3.89 µM
same,GI50,NCI-H226 lung,0.474 µM
same,TGI,NCI-H226 lung,2.67 µM
same,GI50,MDA-MB-231 breast,1.34 µM
same,TGI,MDA-MB-231 breast,5.94 µM
same,GI50,NCI-H522 lung,0.795 µM
same,TGI,NCI-H522 lung,3.76 µM
same,GI50,MCF7 breast,0.708 µM
same,TGI,MCF7 breast,16.8 µM
same,GI50,CAKI-1 renal,1.76 µM
same,TGI,CAKI-1 renal,5.85 µM
same,GI50,NCI-H23 lung,0.6 µM
same,TGI,NCI-H23 lung,4.43 µM
same,GI50,HCC-2998 colon,6.72 µM
same,TGI,HCC-2998 colon,21.9 µM
same,GI50,A498 renal,1.86 µM
same,TGI,A498 renal,16.1 µM
same,GI50,HT29 colon,2.48 µM
same,TGI,HT29 colon,25 µM
same,GI50,SK-OV-3 ovarian,6.28 µM
same,TGI,SK-OV-3 ovarian,28.6 µM
same,GI50,HOP-92 NSCLC,0.576 µM
same,TGI,HOP-92 NSCLC,2.35 µM
same,GI50,SR leukemia,0.189 µM
same,TGI,SR leukemia,0.342 µM
same,GI50,ACHN renal,0.779 µM
same,TGI,ACHN renal,3.6 µM
same,GI50,786-0 renal,3.95 µM
same,TGI,786-0 renal,9.55 µM
same,GI50,OVCAR-4 ovarian,2.09 µM
same,TGI,OVCAR-4 ovarian,6.3 µM
same,GI50,IGROV1 ovarian,1.4 µM
same,TGI,IGROV1 ovarian,3.17 µM
same,GI50,U251 glioblastoma,2.59 µM
same,TGI,U251 glioblastoma,16 µM
same,GI50,HCT-116 colon,0.957 µM
same,TGI,HCT-116 colon,13.8 µM
same,GI50,SW-620 colon,0.48 µM
same,TGI,SW-620 colon,3.37 µM
same,GI50,MDA-MB-468 breast,1.5 µM
same,TGI,MDA-MB-468 breast,4.23 µM
same,GI50,NCI-H460 NSCLC,0.395 µM
same,TGI,NCI-H460 NSCLC,10.6 µM
same,GI50,T-47D breast,0.682 µM
same,TGI,T-47D breast,20.7 µM
same,GI50,DU-145 prostate,4.44 µM
same,TGI,DU-145 prostate,23.2 µM
same,GI50,SK-MEL-28 melanoma,14.2 µM
same,TGI,SK-MEL-28 melanoma,> 90.9 µM
same,GI50,MDA-MB-435 melanoma,11.8 µM
same,TGI,MDA-MB-435 melanoma,> 51 µM
same,GI50,RPMI-8226 leukemia,0.444 µM
same,TGI,RPMI-8226 leukemia,4.28 µM
same,GI50,COLO 205 colon,1.13 µM
same,TGI,COLO 205 colon,7.44 µM
same,GI50,OVCAR-5 ovarian,2.47 µM
same,TGI,OVCAR-5 ovarian,19.6 µM
same,GI50,SNB-75 CNS,1.78 µM
same,TGI,SNB-75 CNS,4.24 µM
same,GI50,HCT-15 colon,2.41 µM
same,TGI,HCT-15 colon,19 µM
same,GI50,HS 578T breast,1.34 µM
same,TGI,HS 578T breast,3.75 µM
same,GI50,UO-31 renal,0.171 µM
same,TGI,UO-31 renal,0.322 µM
same,GI50,MALME-3M melanoma,4.68 µM
same,TGI,MALME-3M melanoma,12.3 µM
same,GI50,SK-MEL-2 melanoma,15.3 µM
same,TGI,SK-MEL-2 melanoma,30.1 µM
same,GI50,CCRF-CEM leukemia,0.211 µM
same,TGI,CCRF-CEM leukemia,0.383 µM
same,GI50,PC-3 prostate,4.22 µM
same,TGI,PC-3 prostate,27.2 µM

# Source: PubChem BioAssay (NCI)
